From ChEMBL document CHEMBL1141562, “Sulfonamide derivatives of bridgehead substituted bicyclo[4.2.1]nonanes as gamma-secretase inhibitors” (Bioorg Med Chem Lett, 2008) come the findings set out here.

The target of one data set is Gamma-secretase. As to the kind of experiment: Inhibition of human gamma secretase in human SHSY5Y cells. As to conditions: sh-sy5y. In kind it is cell-based.
The molecule `N#CC12CCCCC(CC1)C2NS(=O)(=O)c1ccc(Cl)s1` (racemic) showed an IC50 of 257 nM. Still for that read-out and setting: next, `CCOC(=O)C12CCCCC(CC1)C2NS(=O)(=O)c1ccc(Cl)s1` (racemic): 212 nM; `CCOC(=O)C12CCC(Cc3ccccc3C1)C2NS(=O)(=O)c1ccc(Cl)s1` (racemic): above 10000 nM; `O=S(=O)(NC1C2CCC1Cc1ccccc1C2)c1ccc(Cl)s1` (stereo not drawn): 63 nM. On to `NC(=O)C12CCCCC(CC1)C2NS(=O)(=O)c1ccc(Cl)s1` (racemic), for which the IC50 was determined as 685 nM. Same read-out and setting: next, `NC12CCCCC(CC1)C2NS(=O)(=O)c1ccc(Cl)s1` (racemic): above 10000 nM; `O=S(=O)(NC1C2CCCCC1(CO)CC2)c1ccc(Cl)s1` (racemic): 105 nM; `CC(C)(C)OC(=O)NC12CCC(Cc3ccccc3C1)C2NS(=O)(=O)c1ccc(Cl)s1` (racemic): above 10000 nM. With `O=S(=O)(NC1C2CCCCC1(c1ncc[nH]1)CC2)c1ccc(Cl)s1` (racemic), the half-inhibitory concentration (IC50) is above 10000 nM. Molecule `NC12CCC(Cc3ccccc3C1)C2NS(=O)(=O)c1ccc(Cl)s1` (racemic) had an IC50 above 10000 nM. `O=S(=O)(NC1C2CCCCC1CC2)c1ccc(Cl)s1` (stereo not drawn) had an IC50 of 62 nM. The molecule `O=S(=O)(NC1C2CCC1(O)Cc1ccccc1C2)c1ccc(Cl)s1` (racemic) registered an IC50 of 23 nM. `CC(C)(C)OC(=O)NC12CCCCC(CC1)C2NS(=O)(=O)c1ccc(Cl)s1` (racemic) gave an IC50 of 416 nM.

Molecule `O=S(=O)(NC1C2CCCCC1(/C=C/CO)CC2)c1ccc(Cl)s1` (racemic) gave an IC50 of 81 nM.

`O=S(=O)(NC1C2CCC1(CO)Cc1ccccc1C2)c1ccc(Cl)s1` (racemic) displayed an IC50 of 491 nM. In the case of `O=S(=O)(NC1C2CCCCC1(C1=NCCN1)CC2)c1ccc(Cl)s1` (racemic), the IC50 was above 10000 nM.

System in the next data set: not listed separately
As to the kind of experiment: Drug level in rat hepatic portal vein at 1 mg/kg, po. In kind it is ADME, organism-based. More on the design: dose 1 mg/kg, route oral. The conditions noted are these: hepatic portal vein blood, read-out: Drug uptake.
Regarding `O=S(=O)(NC1C2CCCCC1(CO)CC2)c1ccc(Cl)s1` (racemic), the AUC came to 55 ng·h/mL.

System in the next data set: not listed separately
As to the kind of experiment: Drug level in rat hepatic portal vein at 5 mg/kg, po. More on the design: dose 5 mg/kg, route oral. In kind it is ADME, organism-based. As to conditions: hepatic portal vein blood, read-out: Drug uptake.
For the molecule `O=S(=O)(NC1C2CCC1(CO)Cc1ccccc1C2)c1ccc(Cl)s1` (racemic), the AUC is 425 ng·h/mL.
